Results on ten molecules are retold here after patent publication US4587045A, “Intermediates for preparing octapeptide vasopressin antagonists” (SmithKline Beckman Corporation, priority 1985, dated 1986).

For experiment [1] the following is noted: agonist series; cited from earlier work.
The conditions of experiment [2]: compared with the respective parent compound; cited from earlier work.
Experiment [3] has as its target vasopressin stimulated adenylate cyclase activity. Briefly: Assay of adenylate cyclase activity, kidney medullary membrane. As to conditions: pig kidney medullary membrane, read-out: anti-ADH activity in vitro (Pig) Ki. Type of experiment: biochemical. The method, then: (§1) Details of the in vitro protocols are in F. L. Stassen et al., J. of Pharm. Exp. Ther. 233, 50-54 (1982) but the calculations of cyclase activity and binding potential at the receptor site are as follows:
Test Procedure for Assay of Adenylate Cyclase Activity:
In each experiment the amount of ^32 P/cAMP formed in the absence of medullary membrane is determined (blank). The blank value is subtracted from all experimental data. The compound is tested for its effect on basal adenylate cyclase activity and/or on vasopressin stimulated activity. Each determination is carried out in triplicate. The Ka value is derived from a Lineweaver-Burke plot. Rel. Vmax =(Vmax drug/Vmax vasopressin)×100. Ki =I/[(Ka'/Ka)-1] where I is the concentration of the antagonist, and Ka' and Ka are the concentrations of vasopressin required to give half-maximal activity of adenylate cyclase in the presence and absence of antagonist, respectively.

Experiment [4] deals with T1, vasopressin receptors (V2 -receptors) (Rattus norvegicus, UniProt Q00788).
T1 construct: in vivo, in the hydropenic rat or the hydropenic monkey; from tissue; host or cells: whole animal (male hydropenic rat); renal receptors in situ
Description: Hydropenic rat protocol (anti-ADH activity in vivo). As to conditions: estimated dose of peptide delivered ip which reduces Uosm from hydropenic levels to 300 mOsmoles/kg H2O. The method, then:
as §1
Food and water are removed from male rats approximately 18 hours prior to testing. Animals are housed 4 per metabolism cage. At 0 hour, the test compound is administered intraperitoneally to the test group and an equivalent volume of vehicle is administered to both control groups (fasted and non-fasted). Urine volume and osmolality are measured every hour for 4 hours. Test values are recorded as ml of urine excreted (cumulative), mEq/rat electrolyte excreted, mg/rat urea excreted, and osmolality in milli-Osmoles/kg H2 O. A […] is used to determine significance. ED300 is defined as the dose of compound (μg/kg) required to lower urine osmolality to 300 m-Osmoles/kg. ED500 is defined as the dose of compound (μg/kg) required to lower urine osmolality to 500 m-Osmoles/kg. The hydropenic monkey protocol is similar.

Experiment [5] addresses T2, vasopressin receptors (^3 H-vasopressin binding) (Sus scrofa, UniProt P32307).
T2 construct: average KD value determined on 3 preparations of hog kidney membranes; from tissue; host or cells: hog kidney medullary membranes
Description: Binding assay, ^3 H-vasopressin, hog kidney membranes. Set-up: species or system Pig. Conditions: for Kb: KB = IC50/(1+L/KD), ^3 H-vasopressin binding, hog kidney membranes, read-out: anti-ADH activity in vitro (Pig) KB. The method, then: as §1
Test Procedure for Binding Assay:
In each experiment, the amount of ^3 H-vasopressin bound in the absence and in the presence of an excess of vasopressin (7.5×10^-6 M) is measured in triplicate. These values represent total and non-specific binding, respectively. The KB of a compound is derived from the equation for competitive inhibition: KB =IC50 /(1+L/KD), where IC50 is the concentration required for 50% inhibition of specific ^3 H-vasopressin binding, L is the concentration of the ligand, and KD is the dissociation constant of ^3 H-vasopressin (KD =3.6×10^-9 M; 1 SD=0.4×10^-9 M). This is the average KD value determined on 3 preparations of hog kidney membranes.

The target of experiment [6] is vascular pressor sites (V1 -receptors) (Rattus norvegicus, UniProt P30560). The text has this: The second group of vasopressin receptor sites are the vascular pressor sites (V1 -receptors) located within the cardiovascular system itself.
The subject of experiment [7] is vasopressin receptors (V2 -receptors). Briefly: Conscious hydropenic squirrel monkey test (anti-ADH activity). Type of experiment: in vivo.
Description: Food and water are removed from male rats approximately 18 hours prior to testing. Animals are housed 4 per metabolism cage. At 0 hour, the test compound is administered intraperitoneally to the test group and an equivalent volume of vehicle is administered to both control groups (fasted and non-fasted). Urine volume and osmolality are measured every hour for 4 hours. Test values are recorded as ml of urine excreted (cumulative), mEq/rat electrolyte excreted, mg/rat urea excreted, and osmolality in milli-Osmoles/kg H2 O. A tolerance test is used to determine significance. […] The hydropenic monkey protocol is similar.
For experiment [8] the following is noted: reported by Barth; cited from earlier work.
The conditions of experiment [9]: reported by Barth; cited from earlier work. The source holds these as a separate data set.

*1 amine or outer side, *2 acyl side, *3 side chain or, on linkers, in order; H or OH if unused. Where a SMILES comes first, the peptide text is derived from it. Bridges are numbered along the chain shown (N, C = ends). Where no end group is shown, it is not given here. [ ]: non-standard residue; d: D form. The star is where a group is joined. X1 = O=C(CC1(S[*:2])CCCCC1)[*:1]; Abu = CC[C@H](N)C(=O)O; NHPr = CCCN*

For orientation: Ki means a measure of affinity in units of concentration, obtained from inhibition or displacement. The term inhibition denotes the percentage by which the read-out fell short of the control.

T2 sequence (P32307 whole entry): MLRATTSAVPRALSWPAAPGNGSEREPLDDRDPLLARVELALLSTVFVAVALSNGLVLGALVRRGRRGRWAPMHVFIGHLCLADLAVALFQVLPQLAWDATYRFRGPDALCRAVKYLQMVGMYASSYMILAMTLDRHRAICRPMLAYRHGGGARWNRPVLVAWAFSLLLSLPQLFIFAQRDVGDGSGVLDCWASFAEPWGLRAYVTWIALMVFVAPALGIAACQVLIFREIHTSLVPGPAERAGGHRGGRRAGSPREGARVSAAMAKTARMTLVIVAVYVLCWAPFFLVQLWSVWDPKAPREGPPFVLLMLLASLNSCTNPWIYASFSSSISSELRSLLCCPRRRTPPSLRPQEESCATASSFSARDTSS
vascular pressor sites (V1 -receptors), sequence (P30560 whole entry): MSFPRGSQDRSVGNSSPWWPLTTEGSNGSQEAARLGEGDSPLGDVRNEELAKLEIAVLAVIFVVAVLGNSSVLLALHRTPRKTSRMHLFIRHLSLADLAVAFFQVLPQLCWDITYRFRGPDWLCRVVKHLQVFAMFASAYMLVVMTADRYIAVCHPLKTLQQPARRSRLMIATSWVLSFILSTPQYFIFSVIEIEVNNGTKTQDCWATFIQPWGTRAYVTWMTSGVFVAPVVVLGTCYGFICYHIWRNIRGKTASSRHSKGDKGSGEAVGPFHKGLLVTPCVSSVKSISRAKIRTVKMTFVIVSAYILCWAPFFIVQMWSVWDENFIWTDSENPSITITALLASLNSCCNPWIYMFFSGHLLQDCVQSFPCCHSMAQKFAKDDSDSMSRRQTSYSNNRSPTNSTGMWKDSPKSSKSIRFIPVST
T1 sequence (Q00788 whole entry): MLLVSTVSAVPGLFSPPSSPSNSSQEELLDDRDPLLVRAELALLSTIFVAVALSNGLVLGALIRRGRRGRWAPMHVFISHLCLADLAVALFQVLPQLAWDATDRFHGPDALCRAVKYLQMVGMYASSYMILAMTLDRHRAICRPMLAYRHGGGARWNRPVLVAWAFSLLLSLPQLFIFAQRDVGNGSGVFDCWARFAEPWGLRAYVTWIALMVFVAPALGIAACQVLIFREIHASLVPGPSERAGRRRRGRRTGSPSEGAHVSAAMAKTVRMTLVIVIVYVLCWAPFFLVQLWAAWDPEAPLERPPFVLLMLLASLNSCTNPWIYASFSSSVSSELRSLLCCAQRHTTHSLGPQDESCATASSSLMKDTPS

Regarding “desglycine^9 -oxytocin (CYIQNCPL; disulfide 1-6 (inferred); ends not checked; UniProt P01178 20-28, looked up, variant G9*) [literature agonist analog, B. Berde et al]”, the “effect on blood pressure compared with oxytocin” value in experiment [1] is “opposite effect”. In experiment [2], the “activity of the parent compound retained” value was “little”. Take `CC(C)[C@@H]1NC(=O)[C@H](Cc2ccccc2)NC(=O)[C@@H](Cc2ccc(O)cc2)NC(=O)CC2(CCCCC2)SSC[C@@H](C(=O)N2CCC[C@H]2C(=O)N[C@@H](CCCNC(=N)N)C(=O)NCC(N)=O)NC(=O)[C@H](CC(N)=O)NC1=O` [Compound 1] ([dY]FVNCPRG-NH2; linker N-5 via X1): the Ki in [3] was found to be 30 nM. The “anti-ADH activity in vivo (Rat) ED300” value in experiment [4] is 32 µg/kg. As to `CCCNC(=O)[C@H](CCCNC(=N)N)NC(=O)[C@@H]1CCCN1C(=O)[C@@H]1CSSC2(CCCCC2)CC(=O)N[C@H](CC(C)C)C(=O)N[C@@H](Cc2ccccc2)C(=O)N[C@@H](C(C)C)C(=O)N[C@@H](CC(N)=O)C(=O)N1` [Example 4] ([dL]FVNCPR-NHPr; linker N-5 via X1), the inhibition at 10 µM in [5] (at 10^-5 M, read-out: Kbind, inhibition) was determined as 12.1%. Turning to `CCOc1ccc(C[C@H]2NC(=O)CC3(CCCCC3)SSC[C@@H](C(=O)N3CCC[C@H]3C(=O)N[C@@H](CCCNC(=N)N)C(N)=O)NC(=O)[C@H](CC(N)=O)NC(=O)[C@H](C(C)C)NC(=O)[C@H](Cc3ccccc3)NC2=O)cc1` [Compound 5, [1-(β-mercapto-β,β-cyclopentamethylenepropionicacid)-2-(O-ethyl-D-tyrosine)-4-valine-8-arginine-9-desglycine]vasopressin] ([dY](Et)FVNCPR-NH2; linker N-5 via X1), the values for the Kb in experiment [5] and in experiment [6] were 7.8 nM and 3.98 nM, respectively. In addition, in experiment [6] (in vivo), the “pA2, inhibition of vasopressin-induced vasoconstriction” value is on record as 7.71.

As for “des-lysine^8 -desglycinamide^9 -vasopressin”, in experiment [2], the “activity of the parent compound retained” value is reported as “little”. `CCOc1ccc(C[C@H]2NC(=O)CC3(CCCCC3)SSC[C@@H](C(=O)N3CCC[C@H]3C(=O)N[C@@H](CCCNC(=N)N)C(=O)NCC(N)=O)NC(=O)[C@H](CC(N)=O)NC(=O)[C@H](C(C)C)NC(=O)[C@H](Cc3ccccc3)NC2=O)cc1` [Compound 4] ([dY](Et)FVNCPRG-NH2; linker N-5 via X1): the Ki in [3] is 5.9 nM. In experiment [4], the “anti-ADH activity in vivo (Rat) ED300” value was 9.9 µg/kg. Also, in experiment [7], the “ED300, dose required to decrease urine osmolality to 300M Osm/kg water” value is 33.1 nmol/kg. For des-glycinamide^9 -vasopressin, in [2], the “activity of the parent compound retained” value is “little”. Moreover, the CNS activity entry in [8] is given as “has CNS activity”. In addition, in [9], the “antidiuretic or uterotonic activity” value is “practically no”. As for `CCOc1ccc(C[C@H]2NC(=O)CC3(CCCCC3)SSC[C@@H](C(=O)N3CCC[C@H]3C(=O)N[C@@H](CCCNC(=N)N)C(N)=O)NC(=O)[C@H](CC(N)=O)NC(=O)[C@H](CC)NC(=O)[C@H](Cc3ccccc3)NC2=O)cc1` [Compound 6] ([dY](Et)F[Abu]NCPR-NH2; linker N-5 via X1), the Kb in experiment [5] turned out to be 18 nM. For the molecule `CC(C)[C@@H]1NC(=O)[C@H](Cc2ccccc2)NC(=O)[C@@H](Cc2ccc(O)cc2)NC(=O)CC2(CCCCC2)SSC[C@@H](C(=O)N2CCC[C@H]2C(=O)N[C@@H](CCCNC(=N)N)C(N)=O)NC(=O)[C@H](CC(N)=O)NC1=O` [Compound 2, [1-(β-mercapto-β,β-cyclopentamethylenepropionic acid)-2-D-tyrosine-4-valine-8-arginine-9-desglycine]vasopressin] ([dY]FVNCPR-NH2; linker N-5 via X1), the Kb in [5] was 65 nM. Same read-out and setting: the figure for `CC(C)[C@@H]1NC(=O)[C@H](Cc2ccccc2)NC(=O)[C@@H](Cc2ccc(O)cc2)NC(=O)CC2(CCCCC2)SSC[C@@H](C(=O)N2CCC[C@H]2C(=O)N[C@@H](CCCNC(=N)N)C(=O)O)NC(=O)[C@H](CC(N)=O)NC1=O` [Compound 3, [1-(β-mercapto-β,β-cyclopentamethylenepropionic acid)-2-D-tyrosine-4-valine-8-arginine-9-desglycinamide]vasopressin] ([dY]FVNCPR-OH; linker N-5 via X1) is 350 nM.
